Test results reported in the OPERA property sets (Mansouri et al. 2018).
Converted amounts (≈) assume the structure as drawn.

Conditions: for solubility: 25 °C

| Compound | logP | solubility |
| --- | --- | --- |
| Clc1cc2c(c(Cl)c1Cl)Oc1c(Cl)c(Cl)c(Cl)c(Cl)c1O2 | 8.2 |  |
| c1ccc2c(c1)Oc1ccccc1O2 | 4.3 |  |
| Clc1cc2c(cc1Cl)Oc1c(Cl)c(Cl)c(Cl)c(Cl)c1O2 | 7.8 |  |
| Clc1ccc2c(c1)Oc1ccccc1O2 | 5 |  |
| Clc1ccc2c(c1)Oc1c(Cl)c(Cl)c(Cl)c(Cl)c1O2 | 7.4 |  |
| Clc1ccc2c(c1)Oc1ccc(Cl)cc1O2 | 5.75 |  |
| Clc1cccc2c1Oc1ccccc1O2 | 4.75 |  |
| Clc1cc2c(cc1Cl)Oc1cc(Cl)c(Cl)cc1O2 | 6.8 | 0.621 nM (≈ 0.2 ng/mL) |
| Clc1c(Cl)c(Cl)c2c(c1Cl)Oc1c(Cl)c(Cl)c(Cl)c(Cl)c1O2 | 8.2 |  |
| Clc1cc(Cl)c2c(c1Cl)Oc1ccccc1O2 | 6.35 |  |
| Clc1c(Cl)c(Cl)c2c(c1Cl)Oc1ccccc1O2 | 6.6 | 1.96 nM (≈ 0.63 ng/mL) |
